Results: the supplement of paper PMC10920090

Key:
[1] = tested on: MDA-MB-231; experiment: drug sensitivity score (DSS), cell viability CellTiter-Glo; higher = more sensitive; extreme values may be limits of the assay; conditions: 72 h
[2] = tested on: MDA-MB-231; experiment: drug sensitivity score (DSS), cytotoxicity CellTox Green; higher = more cytotoxic; extreme values may be limits of the assay; conditions: 72 h
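Throughout, for drug sensitivity score (DSS), cytotoxicity CellTox Green: DSS summarises each dose–response curve by combining IC50, EC50, maximal inhibition and efficacy across drug concentrations.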

| SMILES | drug sensitivity score ([1]; shRNA: shPPFIA1_1) [DSS] | drug sensitivity score ([1]; shRNA: shScramble) [DSS] | drug sensitivity score ([2]; shRNA: shPPFIA1_1) [DSS] | drug sensitivity score ([2]; shRNA: shScramble) [DSS] |
| --- | --- | --- | --- | --- |
| Nc1cccc2c1CN(C1CCC(=O)NC1=O)C2=O (configuration not stated) [Lenalidomide] | 0 | 0 | 0 | 0 |
| COc1cc2nccc(Oc3ccc(NC(=O)NC4CC4)c(Cl)c3)c2cc1C(N)=O [Lenvatinib] | 0 | 0 | 0 | 0 |
| C[C@]12O[C@H](C[C@]1(O)CO)n1c3ccccc3c3c4c(c5c6ccccc6n2c5c31)CNC4=O [Lestaurtinib] | 1.1 | 4.9 | 0 | 0 |
| N#Cc1ccc(C(c2ccc(C#N)cc2)n2cncn2)cc1 [Letrozole] | 0 | 0 | 0 | 0 |
| c1ccc([C@H]2CN3CCSC3=N2)cc1 [Levamisole] | 0 | 0 | 0 | 0 |
| Cc1ccc(F)c(NC(=O)Nc2ccc(-c3cccc4[nH]nc(N)c34)cc2)c1 [Linifanib] | 0 | 0 | 0 | 0 |
| C[C@]1(O)C[C@@H](c2nc(-c3ccc4ccc(-c5ccccc5)nc4c3)c3c(N)nccn32)C1 [Linsitinib] | 0 | 0 | 0 | 0 |
| Nc1nc(OCc2cc(Br)cs2)c2[nH]cnc2n1 [Lomeguatrib] | 0.1 | 0 | 0 | 0 |
| O=NN(CCCl)C(=O)NC1CCCCC1 [Lomustine] | 0 | 0 | 0 | 0 |
| NC(=O)N1CCC(CC(=O)N2CCC([C@H]3c4ncc(Br)cc4CCc4cc(Cl)cc(Br)c43)CC2)CC1 [Lonafarnib] | 2.4 | 3.1 | 0 | 0 |
| Cc1c(F)cc(C(=O)NC2CC2)cc1-c1ccc(C(=O)NCC(C)(C)C)cn1 [Losmapimod] | 1.7 | 0 | 0 | 0 |
| CC[C@H](C)C(=O)O[C@H]1C[C@@H](C)C=C2C=C[C@H](C)[C@H](CC[C@@H]3C[C@@H](O)CC(=O)O3)[C@H]21 [Lovastatin] | 0 | 0 | 0 | 0 |
| CNC(=O)c1cccc2cc(Oc3ccnc4cc(OCC5(N)CC5)c(OC)cc34)ccc12 [Lucitanib] | 0 | 0.7 | 0.3 | 1.2 |
| CCNC(=O)c1noc(-c2cc(C(C)C)c(O)cc2O)c1-c1ccc(CN2CCOCC2)cc1 [Luminespib] | 9.5 | 12.2 | 0 | 2 |
| C=CCn1c(=O)c2cnc(Nc3ccc(N4CCN(C)CC4)cc3)nc2n1-c1cccc(C(C)(C)O)n1 [MK1775] | 5.1 | 7.5 | 9.4 | 7.6 |
| O=C(O)CC[C@H]1CC[C@@](c2cc(F)ccc2F)(S(=O)(=O)c2ccc(Cl)cc2)CC1 [MK-0752] | 0 | 0.2 | 0 | 0 |
| NC1(c2ccc(-c3nc4ccn5c(=O)[nH]nc5c4cc3-c3ccccc3)cc2)CCC1 [MK-2206] | 6.5 | 6.8 | 0 | 0 |

| SMILES | drug sensitivity score ([1]; shRNA: shPPFIA1_1) [DSS] | drug sensitivity score ([1]; shRNA: shScramble) [DSS] | drug sensitivity score ([2]; shRNA: shPPFIA1_1) [DSS] | drug sensitivity score ([2]; shRNA: shScramble) [DSS] |
| --- | --- | --- | --- | --- |
| CN(C[C@@H]1COCCO1)S(=O)(=O)Nc1ccc2ccc3ncc(-c4cnn(C)c4)cc3c(=O)c2c1 [MK-2461] | 0 | 3.6 | 0 | 0 |
| O=C(c1cccc(Cl)c1F)N1CCN(Cc2cccc(Nc3nccs3)n2)CC1 [MK-8745] | 0.9 | 0.3 | 0.5 | 0.3 |
| Cn1cc(-c2cnn3c(N)c(Br)c([C@@H]4CCCNC4)nc23)cn1 [MK-8776] | 0 | 2.9 | 0 | 0 |
| Cc1cnc(-c2ccccc2C(C)C)nc1NCc1ccc(-n2ccnn2)cc1 [ML323] | 0 | 1.7 | 0 | 0 |
| CC(C)n1nc(-c2ccc3oc(N)nc3c2)c2c(N)ncnc21 [MLN-0128] | 0.2 | 5 | 0 | 0 |
| O=C(O)c1ccc(Nc2ncc3c(n2)-c2ccc(Cl)cc2C(c2c(F)cccc2F)=NC3)cc1 [MLN-8054] | 0.1 | 2.2 | 0 | 0 |
| O=C(Nc1cccc(NC(=O)c2cccc(O)c2O)c1)c1cccc(O)c1O [MST-312] | 8.6 | 7.6 | 0 | 0 |
| CNC(=O)[C@@H](NC(=O)[C@H](CC(C)C)[C@H](O)C(=O)NO)C(C)(C)C [Marimastat] | 0.2 | 0 | 0 | 0 |
| Cc1ccc(NC(=O)c2ccc(CN3CCN(C)CC3)cc2)cc1Nc1nc(-c2cccnc2)cs1 [Masitinib] | 0.2 | 2.9 | 0.2 | 0.1 |
| CC(=O)O[C@]1(C(C)=O)CC[C@H]2[C@@H]3C=C(C)C4=CC(=O)CC[C@]4(C)[C@H]3CC[C@@]21C [Megestrol acetate] | 0 | 0 | 0 | 0 |
| N[C@@H](Cc1ccc(N(CCCl)CCCl)cc1)C(=O)O [Melphalan] | 0 | 0.4 | 0 | 0 |
| CCN(CC)CCCC(C)Nc1c2ccc(Cl)cc2nc2ccc(OC)cc12 (configuration not stated) [Mepacrine] | 18.6 | 21.1 | 18.5 | 18.6 |
| S=c1[nH]cnc2nc[nH]c12 [Mercaptopurine] | 5.1 | 12 | 0 | 0 |
| Cc1ccc(C(=O)Nc2ccc(Oc3cc4cnn(C)c4cc3-c3cn[nH]c3)c(F)c2)c(=O)n1-c1ccc(F)cc1 [Merestinib] | 9 | 0 | 0 | 0 |
| CN(C)C(=N)NC(=N)N [Metformin] | 0 | 0 | 0 | 0 |
| CN(Cc1cnc2nc(N)nc(N)c2n1)c1ccc(C(=O)N[C@@H](CCC(=O)O)C(=O)O)cc1 [Methotrexate] | 2.8 | 4 | 0 | 0 |
